How the values were obtained:
[1] = test system: dentate gyrus granule cells (DGGCs); type: cell-based, mouse; conditions: for tonic current after exposure and washout: 30-60 min wash, vehicle control 43.9±5.7 pA; for concentration dependence of tonic current after exposure and washout: maximal effects at 1 μM; for tonic current versus vehicle treated slices with PKC inhibitor GFX: GFX 50 μM 15 min, then co-exposure 15 min, ≥30 min washout
Experimental: Brain slices were prepared from 3- to 5-week-old male C57 mice. Mice were anesthetized with isoflurane, decapitated, and brains were rapidly removed and submerged in ice-cold cutting solution containing (mM): 126 NaCl, 2.5 KCl, 0.5 CaCl2, 2 MgCl2, 26 NaHCO3, 1.25 NaH2PO4, 10 glucose, 1.5 sodium pyruvate, and 3 kynurenic acid. Coronal 310 μm thick slices were cut with the vibratome VT1000S (Leica Microsystems, St Louis, Mo., USA). The slices were then transferred into incubation chamber filled with prewarmed (31-32° C.) oxygenated artificial cerebro-spinal fluid (ACSF) of the following composition (in mM): 126 NaCl, 2.5 KCl, 2 CaCl2, 2 MgCl2, 26 NaHCO3, 1.25 NaH2PO4, 10 glucose, 1.5 sodium pyruvate, 1 glutamine, 3 kynurenic acid and 0.005 GABA bubbled with 95% O2-5% CO2. Slices were allowed to recover at 32° C. for at least 1 hr before recording. Exogenous GABA was added in an attempt to standardize ambient GABA in the slice and provide an agonist source for newly inserted extrasynaptic GABAARs.
After recovery, a single slice was transferred to a submerged, dual perfusion recording chamber (Warner Instruments, Hamden, Conn., USA) on the stage of an upright microscope (Nikon FN-1) with a 40× water immersion objective equipped with DIC/IR optics. Slices were maintained at 32° C. and gravity-superfused with ACSF solution throughout experimentation and perfused at rate of 2 ml/min with oxygenated (O2/CO2 95/5%) ACSF.
Whole-cell currents were recorded from the dentate gyrus granule cells (DGGCs) in 310-μm-thick coronal hippocampal slices. Patch pipettes (5-7MΩ) were pulled from borosilicate glass (World Precision Instruments) and filled with intracellular solution of the composition (in mM) as follows: 140 CsCl, 1 MgCl2, 0.1 EGTA, 10 HEPES, 2 Mg-ATP, 4 NaCl and 0.3 Na-GTP (pH=7.2 with CsOH). A 5 min period for stabilization after obtaining the whole-cell recording conformation (holding potential of −60 mV) was allowed before currents were recorded using an Axopatch 200B amplifier (Molecular Devices), low-pass filtered at 2 kHz, digitized at 20 kHz (Digidata 1440A; Molecular Devices), and stored for offline analysis.
For tonic current measurements, an all-points histogram was plotted for a 10 s period before and during 100 μM picrotoxin application, once the response reached a plateau level. Recordings with unstable baselines were discarded. Fitting the histogram with a Gaussian distribution gave the mean baseline current amplitude and the difference between the amplitudes before and during picrotoxin was considered to be the tonic current. The negative section of the all-points histogram which corresponds to the inward IPSCs was not fitted with a Gaussian distribution (Kretschmannova et al., 2013; Nusser and Mody, 2002). Series resistance and whole-cell capacitance were continually monitored and compensated throughout the course of the experiment. Recordings were eliminated from data analysis if series resistance increased by >20%. Spontaneous inhibitory post-synaptic currents (sIPSCs) were analyzed using the mini-analysis software (version 5.6.4; Synaptosoft, Decatur, Ga.). Minimum threshold detection was set to 3 times the value of baseline noise signal. To assess sIPSC kinetics, the recording trace was visually inspected and only events with a stable baseline, sharp rising phase, and single peak were used to negate artifacts due to event summation. Only recordings with a minimum of 200 events fitting these criteria were analyzed. sIPSCs amplitude, and frequency from each experimental condition was pooled and expressed as mean±SEM. To measure sIPSC decay, 100 consecutive events were averaged and the decay was fitted to a double exponential and the weighted decay constant (tw) was determined. Statistical analysis was performed by using Student t-test (paired and unpaired where appropriate), where p<0.05 is considered significant.

[2] = target: T1, α4β3δ GABAA receptors (Homo sapiens, UniProt O14764+P28472+P48169); test: Whole-cell patch clamp: potentiation of GABA EC20 currents at recombinant α4β3δ GABAA receptors; type: cell-based
T1 construct: expressed in transfected cells; host or cells: CHO cells, transiently transfected (Lipofectamine)
Experimental: Cellular electrophysiology was used to measure the pharmacological properties of ALLO, ganaxolone and SGE-516 in heterologous cell systems. Compounds were tested for their ability to affect GABA mediated currents at a submaximal agonist dose (GABA EC20=2 μM).
LTK cells were stably transfected with the α1β2γ2 subunits of the GABA receptor and CHO cells are transiently transfected with the α4β3γ subunits via the Lipofecatamine method. Cells were passaged at a confluence of about 50-80% and then seeded onto 35 mm sterile culture dishes containing 2 ml culture complete medium without antibiotics or antimycotics. Cells were cultivated at a density that enabled the recording of single cells without visible connections to other cells.
Whole-cell currents were measured with HEKA EPC-10 amplifiers using PatchMaster software. Bath solution for all experiments contained (in mM): NaCl 137, KCl 4, CaCl2 1.8, MgCl2 1, HEPES 10, D-Glucose 10, pH 7.4 with NaOH. Intracellular (pipette) solution contained (in mM): KCl 130, MgCl2 1, Mg-ATP 5, HEPES 10, EGTA 5, pH 7.2 with KOH. During experiments, cells and solutions were maintained at room temperature (19° C.-30° C.). For manual patchclamp recordings, cell culture dishes were placed on the dish holder of the microscope and continuously perfused (1 ml/min) with bath solution. After formation of a Gigaohm seal between the patch electrode and the cell (pipette resistance range: 2.5 MΩ-6.0MΩ; seal resistance range: >1 GΩ) the cell membrane across the pipette tip was ruptured to assure electrical access to the cell interior (whole-cell patch configuration).
Cells were voltage-clamped at a holding potential of −80 mV. GABAA receptors were activated by 2 μM GABA and compounds were sequentially applied at increasing concentrations for 30 s prior to a 2 s application of GABA. GABA and compounds were applied to cells via the Dynaflow perfusion system (Cellectricon, Sweden). Test compounds were dissolved in DMSO to form 10 mM stock solution and serially diluted to 0.01, 0.1, 1, and 10 μM in bath solution. There was no effect on GABA currents when DMSO was applied to cells at its maximal concentration in solution (0.1%). All concentrations of test compound were tested on each cell. The relative percentage potentiation was defined as the peak amplitude in response to GABA EC20 in the presence of test compound divided by the peak amplitude in response to GABA EC20 alone, multiplied by 100.
ALLO and ganaxolone are known PAMs of both synaptic and extrasynaptic GABAAR-mediated currents. The ability of candidate compound SGE-516 to act as a PAM was compared to ALLO and ganaxolone using the whole-cell recordings of recombinant human GABAA receptors expressed in mammalian cells. The α1β2γ2 or α4β3δ subunit combinations were chosen as representatives of typical synaptic and extrasynaptic GABAA receptors respectively. Similar to previous reports (Botella et al., 2015), ALLO, ganaxolone and SGE-516 allosterically potentiated currents induced by EC20 concentration of GABA in a concentration-dependent manner in both synaptic- and extrasynaptic-type GABAARs.

[3] = potentiation of current at GABA EC20 (2 μM), n = 3

T1 sequence (P48169 36-554): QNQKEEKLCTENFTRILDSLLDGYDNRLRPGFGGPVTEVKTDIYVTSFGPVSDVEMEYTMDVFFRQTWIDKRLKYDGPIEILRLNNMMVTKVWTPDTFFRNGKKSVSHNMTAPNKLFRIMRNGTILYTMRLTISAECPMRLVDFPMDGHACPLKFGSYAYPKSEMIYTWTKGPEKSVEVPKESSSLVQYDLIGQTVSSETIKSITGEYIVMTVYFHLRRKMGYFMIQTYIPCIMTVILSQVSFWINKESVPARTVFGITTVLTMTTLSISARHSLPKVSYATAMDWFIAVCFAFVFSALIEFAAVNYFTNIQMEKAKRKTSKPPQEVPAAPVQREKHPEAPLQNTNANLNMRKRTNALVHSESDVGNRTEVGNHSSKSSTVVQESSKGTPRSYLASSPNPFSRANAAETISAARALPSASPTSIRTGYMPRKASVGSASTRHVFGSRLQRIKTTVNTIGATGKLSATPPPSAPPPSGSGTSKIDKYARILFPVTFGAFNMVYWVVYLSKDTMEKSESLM
T1 sequence (P28472 26-473): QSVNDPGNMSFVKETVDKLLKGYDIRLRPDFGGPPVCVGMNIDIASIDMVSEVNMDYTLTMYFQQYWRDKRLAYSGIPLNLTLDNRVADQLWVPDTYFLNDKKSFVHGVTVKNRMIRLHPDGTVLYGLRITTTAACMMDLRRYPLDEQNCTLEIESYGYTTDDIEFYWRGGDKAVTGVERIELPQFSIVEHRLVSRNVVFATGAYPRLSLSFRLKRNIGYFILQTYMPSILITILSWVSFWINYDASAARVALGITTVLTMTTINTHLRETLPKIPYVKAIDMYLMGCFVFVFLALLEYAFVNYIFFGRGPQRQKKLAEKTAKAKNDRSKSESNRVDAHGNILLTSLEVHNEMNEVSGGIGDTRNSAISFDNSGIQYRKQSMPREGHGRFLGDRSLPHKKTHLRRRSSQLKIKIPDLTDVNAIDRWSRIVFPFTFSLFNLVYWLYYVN
T1 sequence (O14764 25-452): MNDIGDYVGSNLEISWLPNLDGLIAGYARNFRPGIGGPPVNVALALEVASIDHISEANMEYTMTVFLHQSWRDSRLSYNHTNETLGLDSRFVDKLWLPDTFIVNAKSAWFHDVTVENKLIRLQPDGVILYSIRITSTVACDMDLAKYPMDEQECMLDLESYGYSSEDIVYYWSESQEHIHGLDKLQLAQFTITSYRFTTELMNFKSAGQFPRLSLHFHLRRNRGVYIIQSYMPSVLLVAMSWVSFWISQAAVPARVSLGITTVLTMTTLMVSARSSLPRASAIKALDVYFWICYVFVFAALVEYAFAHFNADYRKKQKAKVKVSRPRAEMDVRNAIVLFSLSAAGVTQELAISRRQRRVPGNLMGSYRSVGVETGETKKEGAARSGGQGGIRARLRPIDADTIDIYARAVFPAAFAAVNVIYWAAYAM

| SMILES | tonic current after 100 nM exposure and washout, WT slices [1] | tonic current after exposure and washout ([1]; 1 μM, 15 min incubation) | concentration dependence of tonic current after exposure and washout ([1]; 15 min incubation, wash) | tonic current versus vehicle treated slices with PKC inhibitor GFX [1] | pEC50 ± S.E.M., α4β3δ [2, 3] | magnitude of tonic current versus control ([1]; 1 μM, 15 min incubation, wash) | EC50 [2, 3] | Emax ± S.E.M., α4β3δ ([2]; relative percentage potentiation of GABA EC20 current) |
| --- | --- | --- | --- | --- | --- | --- | --- | --- |
| CC(=O)[C@H]1CC[C@H]2[C@@H]3CC[C@H]4C[C@H](O)CC[C@]4(C)[C@H]3CC[C@]12C [ALLO, Allopregnanolone] | significant increase | 95.8±10.8 pA | concentration-dependent increase | no significant difference | 7.2 ± 0.3 |  |  |  |
| CC(=O)[C@H]1CC[C@H]2[C@@H]3CC[C@H]4C[C@](C)(O)CC[C@]4(C)[C@H]3CC[C@]12C [Ganaxolone] |  | 57.4±6.3 pA |  |  | 7.0 ± 0.1 | did not significantly alter |  |  |
| C[C@@]1(O)CC[C@@]2(C)[C@H](CC[C@@H]3[C@@H]2CC[C@]2(C)[C@@H](C(=O)Cn4nccn4)CC[C@@H]32)C1 [SGE-516] | significant increased | 123.0±22.2 pA | concentration-dependent increase | no significant difference |  |  | 193 nM | 505 ± 19% |

Reference: US20230116196A1, “METHOD OF TREATING CNS DISORDERS WITH NEU[…] GABAERGIC COMPOUNDS” (priority 2017, published 2023)
